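Method: 48-hour compound exposure of cells in 96-well plates, five concentrations, linear interpolation of endpoints. At the GI50, growth is halved.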 Activity calls are given as the source filed them. No stated cut-off is given here; in the data, active = GI50 up to about 1.1 µM and inactive = higher.
Assays:
Experiment in all cases: growth of human tumour cells (NCI), 48 h
UO-31 = test system: UO-31
NCI-H460 = test system: NCI-H460
PC-3 = test system: PC-3
HOP-92 = test system: HOP-92
NCI/ADR-RES = test system: NCI/ADR-RES
SK-MEL-28 = test system: SK-MEL-28
SF-295 = test system: SF-295
HL-60 = test system: HL-60
CCRF-CEM = test system: CCRF-CEM
EKVX = test system: EKVX
SR = test system: SR
A498 = test system: A498
MDA-MB-231 = test system: MDA-MB-231
DU-145 = test system: DU-145
K562 = test system: K562
UACC-257 = test system: UACC-257
NCI-H226 = test system: NCI-H226
LOX IMVI = test system: LOX IMVI
OVCAR-8 = test system: OVCAR-8
SW-620 = test system: SW-620
SNB-75 = test system: SNB-75
NCI-H23 = test system: NCI-H23
U-251 = test system: U-251
OVCAR-3 = test system: OVCAR-3
SF-268 = test system: SF-268
HOP-62 = test system: HOP-62
MCF7 = test system: MCF7
ACHN = test system: ACHN
SF-539 = test system: SF-539
T47D = test system: T47D
SN12C = test system: SN12C
786-0 = test system: 786-0
A549 = test system: A549
OVCAR-5 = test system: OVCAR-5
COLO 205 = test system: COLO 205
HCT-15 = test system: HCT-15
NCI-H522 = test system: NCI-H522
KM12 = test system: KM12
HCC 2998 = test system: HCC 2998
HCT-116 = test system: HCT-116
RPMI-8226 = test system: RPMI-8226
IGROV-1 = test system: IGROV-1
SK-MEL-5 = test system: SK-MEL-5
MDA-MB-435 = test system: MDA-MB-435
HT-29 = test system: HT-29
MOLT-4 = test system: MOLT-4
Malme-3M = test system: Malme-3M
RXF 393 = test system: RXF 393
CAKI-1 = test system: CAKI-1
Hs-578T = test system: Hs-578T
SNB-19 = test system: SNB-19
MDA-N = test system: MDA-N
OVCAR-4 = test system: OVCAR-4
SK-OV-3 = test system: SK-OV-3
TK-10 = test system: TK-10
BT-549 = test system: BT-549
SK-MEL-2 = test system: SK-MEL-2
M14 = test system: M14

**Q.** Which results are given for C=CCO[C@]1(CC=C)C(=O)C(=O)OC1C1COC(C)(C)O1 (stereo partly specified)?
**A.** GI50 (UO-31): 84.5 µM (inactive); GI50 (NCI-H460): 65.2 µM (inactive); GI50 (PC-3): 44.6 µM (inactive); GI50 (HOP-92): 22.3 µM (inactive); GI50 (NCI/ADR-RES): 37.4 µM (inactive); GI50 (SK-MEL-28): > 10 µM (inactive); GI50 (SF-295): > 100 µM (inactive); GI50 (HL-60): > 10 µM (inactive); GI50 (CCRF-CEM): 29.4 µM (inactive); GI50 (EKVX): > 100 µM (inactive); GI50 (SR): 22.9 µM (inactive); GI50 (A498): > 100 µM (inactive); GI50 (MDA-MB-231): 41.6 µM (inactive); GI50 (DU-145): > 100 µM (inactive); GI50 (K562): 27.4 µM (inactive); GI50 (UACC-257): 30 µM (inactive); GI50 (NCI-H226): > 100 µM (inactive); GI50 (LOX IMVI): 16.9 µM (inactive); GI50 (OVCAR-8): 29.2 µM (inactive); GI50 (SW-620): 18.6 µM (inactive); GI50 (SNB-75): 27.7 µM (inactive); GI50 (NCI-H23): 53.2 µM (inactive); GI50 (U-251): 72.3 µM (inactive); GI50 (OVCAR-3): 45.7 µM (inactive); GI50 (SF-268): 26.6 µM (inactive); GI50 (HOP-62): > 100 µM (inactive); GI50 (MCF7): 19.1 µM (inactive); GI50 (ACHN): 16.6 µM (inactive); GI50 (SF-539): > 100 µM (inactive); GI50 (T47D): 34.8 µM (inactive); GI50 (SN12C): 34.4 µM (inactive); GI50 (786-0): 35.1 µM (inactive); GI50 (A549): > 100 µM (inactive); GI50 (OVCAR-5): > 100 µM (inactive); GI50 (COLO 205): 20.5 µM (inactive); GI50 (HCT-15): 21.1 µM; GI50 (NCI-H522): 21.2 µM (inactive); GI50 (KM12): 18.8 µM (inactive); GI50 (HCC 2998): > 100 µM (inactive); GI50 (HCT-116): 32 µM (inactive); GI50 (RPMI-8226): 25.9 µM (inactive); GI50 (IGROV-1): > 100 µM (inactive); GI50 (SK-MEL-5): 36.1 µM (inactive); GI50 (MDA-MB-435): 36 µM (inactive); GI50 (HT-29): 19.8 µM (inactive); GI50 (MOLT-4): 31.8 µM (inactive); GI50 (Malme-3M): 17.3 µM (inactive); GI50 (RXF 393): 19.8 µM (inactive); GI50 (CAKI-1): 27.1 µM (inactive); GI50 (Hs-578T): 74 µM (inactive); GI50 (SNB-19): > 100 µM (inactive); GI50 (MDA-N): 36 µM (inactive)

**Q.** What does the source list for N#CC(C(=O)c1ccccc1F)c1nc2cc(C(F)(F)F)ccc2s1 (stereo unspecified)?
**A.** GI50 (NCI-H460): 30.1 µM (inactive); GI50 (HOP-92): 19.1 µM (inactive); GI50 (NCI/ADR-RES): 19.7 µM (inactive); GI50 (SK-MEL-28): 29.4 µM (inactive); GI50 (SF-295): 14.3 µM (inactive); GI50 (EKVX): 22.4 µM (inactive); GI50 (A498): 14 µM (inactive); GI50 (MDA-MB-231): 31 µM (inactive); GI50 (DU-145): 28.3 µM (inactive); GI50 (UACC-257): 27.4 µM (inactive); GI50 (NCI-H226): 33.2 µM (inactive); GI50 (LOX IMVI): 17.6 µM (inactive); GI50 (OVCAR-8): 31.6 µM (inactive); GI50 (SW-620): 30.6 µM (inactive); GI50 (OVCAR-4): 31.3 µM (inactive); GI50 (SNB-75): 14.6 µM (inactive); GI50 (NCI-H23): 19.7 µM (inactive); GI50 (U-251): 26.7 µM (inactive); GI50 (OVCAR-3): 16.6 µM (inactive); GI50 (SF-268): 30.3 µM (inactive); GI50 (SK-OV-3): 27 µM (inactive); GI50 (HOP-62): 18.7 µM (inactive); GI50 (ACHN): 27.5 µM (inactive); GI50 (TK-10): 30.8 µM (inactive); GI50 (SF-539): 33.4 µM (inactive); GI50 (T47D): 25.9 µM (inactive); GI50 (SN12C): 23.1 µM (inactive); GI50 (786-0): 19.6 µM (inactive); GI50 (OVCAR-5): 21.2 µM (inactive); GI50 (COLO 205): 20.9 µM (inactive); GI50 (BT-549): 23 µM (inactive); GI50 (HCT-15): 20.1 µM; GI50 (NCI-H522): 17.3 µM (inactive); GI50 (KM12): 32.5 µM (inactive); GI50 (HCT-116): 19.2 µM (inactive); GI50 (RPMI-8226): 22 µM (inactive); GI50 (IGROV-1): 36.3 µM (inactive); GI50 (SK-MEL-5): 20.8 µM (inactive); GI50 (MDA-MB-435): 25.8 µM (inactive); GI50 (HT-29): 17.6 µM (inactive); GI50 (MOLT-4): 31.1 µM (inactive); GI50 (Malme-3M): 19.6 µM (inactive); GI50 (RXF 393): 24 µM (inactive); GI50 (CAKI-1): 32.3 µM (inactive)

**Q.** Which results are given for N#C[BH2-][n+]1ccc(C(=O)NNC(c2ccccc2)C(F)(F)F)cc1 (stereo unspecified)?
**A.** GI50 (NCI-H460): > 100 µM (inactive); GI50 (PC-3): > 100 µM (inactive); GI50 (HOP-92): 1 µM (active); GI50 (NCI/ADR-RES): > 100 µM (inactive); GI50 (SK-MEL-28): > 100 µM (inactive); GI50 (SF-295): > 100 µM (inactive); GI50 (HL-60): > 100 µM (inactive); GI50 (CCRF-CEM): > 100 µM (inactive); GI50 (EKVX): > 100 µM (inactive); GI50 (SR): > 100 µM (inactive); GI50 (MDA-MB-231): > 100 µM (inactive); GI50 (DU-145): > 100 µM (inactive); GI50 (K562): > 100 µM (inactive); GI50 (UACC-257): > 100 µM (inactive); GI50 (NCI-H226): > 100 µM (inactive); GI50 (LOX IMVI): > 100 µM (inactive); GI50 (OVCAR-8): > 100 µM (inactive); GI50 (SW-620): > 100 µM (inactive); GI50 (OVCAR-4): > 100 µM (inactive); GI50 (SNB-75): > 100 µM (inactive); GI50 (NCI-H23): 31.7 µM (inactive); GI50 (U-251): > 100 µM (inactive); GI50 (SF-268): > 100 µM (inactive); GI50 (SK-MEL-2): > 100 µM (inactive); GI50 (HOP-62): 97.7 µM (inactive); GI50 (MCF7): > 100 µM (inactive); GI50 (ACHN): > 100 µM (inactive); GI50 (TK-10): > 100 µM (inactive); GI50 (SF-539): > 100 µM (inactive); GI50 (SN12C): > 100 µM (inactive); GI50 (786-0): > 100 µM (inactive); GI50 (A549): > 100 µM (inactive); GI50 (OVCAR-5): > 100 µM (inactive); GI50 (COLO 205): > 100 µM (inactive); GI50 (BT-549): > 100 µM (inactive); GI50 (HCT-15): > 100 µM; GI50 (NCI-H522): 68.9 µM (inactive); GI50 (KM12): > 100 µM (inactive); GI50 (HCC 2998): > 100 µM (inactive); GI50 (HCT-116): > 100 µM (inactive); GI50 (RPMI-8226): > 100 µM (inactive); GI50 (IGROV-1): > 100 µM (inactive); GI50 (SK-MEL-5): > 100 µM (inactive); GI50 (MDA-MB-435): > 100 µM (inactive); GI50 (HT-29): > 100 µM (inactive); GI50 (MOLT-4): > 100 µM (inactive); GI50 (Malme-3M): > 100 µM (inactive); GI50 (CAKI-1): > 100 µM (inactive); GI50 (SNB-19): > 100 µM (inactive); GI50 (M14): > 100 µM (inactive)
